Assay results published in US7910751B2, “Heterocyclidene acetamide derivative” (Mochida Pharmaceutical Co., Ltd., priority 2005, dated 2011).

Molecular target: T1, human TRPV1 (Homo sapiens, UniProt Q8NER1)
T1 construct: expressed in transfected cells; host or cells: CHO-K1
Assay: Measurement of capsaicin-induced Ca influx in human TRPV1 transformed CHO cell line using FDSS-6000
Format: cell-based
Conditions: concentration at which the capsaicin concentration-reaction curve is shifted two times to the right, human TRPV1 transformed CHO cells

T1 sequence (Q8NER1 whole entry): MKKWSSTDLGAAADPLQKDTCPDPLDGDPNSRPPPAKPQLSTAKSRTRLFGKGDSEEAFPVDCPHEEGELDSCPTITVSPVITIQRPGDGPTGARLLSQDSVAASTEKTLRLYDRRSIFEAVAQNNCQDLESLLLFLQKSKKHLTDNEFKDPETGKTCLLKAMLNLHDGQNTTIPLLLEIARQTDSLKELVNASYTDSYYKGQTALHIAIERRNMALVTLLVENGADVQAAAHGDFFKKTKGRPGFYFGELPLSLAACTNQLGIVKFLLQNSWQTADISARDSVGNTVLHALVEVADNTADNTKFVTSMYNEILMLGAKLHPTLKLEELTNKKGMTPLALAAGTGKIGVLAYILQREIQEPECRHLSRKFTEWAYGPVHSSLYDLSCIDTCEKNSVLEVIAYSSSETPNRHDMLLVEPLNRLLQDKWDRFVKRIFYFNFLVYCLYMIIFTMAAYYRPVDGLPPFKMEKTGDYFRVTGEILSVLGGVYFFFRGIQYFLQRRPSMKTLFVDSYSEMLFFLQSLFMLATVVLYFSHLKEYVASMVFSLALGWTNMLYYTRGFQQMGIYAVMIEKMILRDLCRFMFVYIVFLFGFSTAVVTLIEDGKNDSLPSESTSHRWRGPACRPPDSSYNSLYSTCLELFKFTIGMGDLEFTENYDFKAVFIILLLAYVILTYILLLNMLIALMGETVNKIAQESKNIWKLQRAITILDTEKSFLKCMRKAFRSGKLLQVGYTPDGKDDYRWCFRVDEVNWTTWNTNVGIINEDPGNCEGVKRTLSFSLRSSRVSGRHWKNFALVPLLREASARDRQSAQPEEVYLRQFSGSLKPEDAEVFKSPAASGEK

## CC1(C)CC1C(=O)N1CC/C(=C\C(=O)Nc2cccc3c2CC(O)CC3)c2ccc(C(F)(F)F)cc21 (centres unmarked) [Example 109, (E)-2-(7-trifluoromethyl-2,3-dihydro-1-((2,2-dimethylcyclopropane)carbonyl)quinolin-4(1H)-ylidene)-N-(7-hydroxy-5,6,7,8-tetrahydronaphthalen-1-yl)acetamide]
  A2 VALUE: A (compounds of the present invention having an A2 value of less than 100 nM are represented by A)

## O=C(/C=C1\CCN(C(=O)C2CCC(C(F)(F)F)CC2)c2cc(C(F)(F)F)ccc21)Nc1cccc2c1CC(O)CC2 (centres unmarked) [Example 110]
  A2 VALUE: A (compounds of the present invention having an A2 value of less than 100 nM are represented by A)

## O=C(/C=C1\CCN(C(=O)c2ccco2)c2cc(C(F)(F)F)ccc21)Nc1cccc2c1CC(O)CC2 (centres unmarked) [Example 111, (E)-2-(7-trifluoromethyl-2,3-dihydro-1-(2-furancarbonyl)quinolin-4(1H)-ylidene)-N-(7-hydroxy-5,6,7,8-tetrahydronaphthalen-1-yl)acetamide]
  A2 VALUE: A (compounds of the present invention having an A2 value of less than 100 nM are represented by A)

## O=C(/C=C1\CCN(C(=O)C2(O)CC2)c2cc(C(F)(F)F)ccc21)Nc1cccc2c1CC(O)CC2 (centres unmarked) [Example 112, (E)-2-(1-(1-hydroxycyclopropanecarbonyl)-7-trifluoromethyl-2,3-dihydroquinolin-4(1H)-ylidene)-N-(7-hydroxy-5,6,7,8-tetrahydronaphthalen-1-yl)acetamide]
  A2 VALUE: B (compounds having an A2 value of 100 nM or more are represented by B)

## O=CN1CC/C(=C\C(=O)Nc2cccc3c2CC(O)CC3)c2ccc(C(F)(F)F)cc21 (centres unmarked) [Example 114, (E)-2-(1-formyl-7-trifluoromethyl-2,3-dihydroquinolin-4(1H)-ylidene)-N-(7-hydroxy-5,6,7,8-tetrahydronaphthalen-1-yl)acetamide]
  A2 VALUE: A (compounds of the present invention having an A2 value of less than 100 nM are represented by A)

## O=C(/C=C1\CCN(C(=O)C2(F)CCCC2)c2cc(C(F)(F)F)ccc21)Nc1cccc2c1CC(O)CC2 (centres unmarked) [Example 115, (E)-2-(1-(1-fluorocyclopentanecarbonyl)-7-trifluoromethyl-2,3-dihydroquinolin-4(1H)-ylidene)-N-(7-hydroxy-5,6,7,8-tetrahydronaphthalen-1-yl)acetamide]
  A2 VALUE: A (compounds of the present invention having an A2 value of less than 100 nM are represented by A)

## CC(F)(F)CC(=O)N1CC/C(=C\C(=O)Nc2cccc3c2CC(O)CC3)c2ccc(C(F)(F)F)cc21 (centres unmarked) [Example 116, (E)-2-(1-(3,3-difluorobutanoyl)-7-trifluoromethyl-2,3-dihydroquinolin-4(1H)-ylidene)-N-(7-hydroxy-5,6,7,8-tetrahydronaphthalen-1-yl)acetamide]
  A2 VALUE: A (compounds of the present invention having an A2 value of less than 100 nM are represented by A)

## CCC(F)(F)CC(=O)N1CC/C(=C\C(=O)Nc2cccc3c2CC(O)CC3)c2ccc(C(F)(F)F)cc21 (centres unmarked) [Example 117, (E)-2-(1-(3,3-difluoropentanoyl)-7-trifluoromethyl-2,3-dihydroquinolin-4(1H)-ylidene)-N-(7-hydroxy-5,6,7,8-tetrahydronaphthalen-1-yl)acetamide]
  A2 VALUE: A (compounds of the present invention having an A2 value of less than 100 nM are represented by A)

## O=C(/C=C1\CCN(C(=O)C2CC(F)(F)C2)c2cc(C(F)(F)F)ccc21)Nc1cccc2c1CC(O)CC2 (centres unmarked) [Example 118, (E)-2-(1-(3,3-difluorocyclobutanecarbonyl)-7-trifluoromethyl-2,3-dihydroquinolin-4(1H)-ylidene)-N-(7-hydroxy-5,6,7,8-tetrahydronaphthalen-1-yl)acetamide]
  A2 VALUE: A (compounds of the present invention having an A2 value of less than 100 nM are represented by A)

## O=C1CCc2cccc(NC(=O)/C=C3\CCOc4cc(C(F)(F)F)ccc43)c2C1 [Example 119, (E)-N-(7-oxo-5,6,7,8-tetrahydronaphthalen-1-yl)-2-(7-trifluoromethyl-chroman-4-ylidene)acetamide]
  A2 VALUE: A (compounds of the present invention having an A2 value of less than 100 nM are represented by A)

## O=C(/C=C1\CCOc2cc(C(F)(F)F)ccc21)Nc1cccc2ccc(O)cc12 [Example 120, (E)-N-(7-hydroxynaphthalen-1-yl)-2-(7-trifluoromethyl-chroman-4-ylidene)acetamide]
  A2 VALUE: A (compounds of the present invention having an A2 value of less than 100 nM are represented by A)

## O=C(/C=C1\CCOc2cc(C(F)(F)F)ccc21)Nc1cccc2c1CC(O)C(=O)N2 (centres unmarked) [Example 121, (E)-N-(3-hydroxy-2-oxo-1,2,3,4-tetrahydroquinolin-5-yl)-2-(7-trifluoromethyl-chroman-4-ylidene)acetamide]
  A2 VALUE: A (compounds of the present invention having an A2 value of less than 100 nM are represented by A)

## O=C(/C=C1\CCOc2cc(C(F)(F)F)ccc21)Nc1cccc2c1CC(O)CN2 (centres unmarked) [Example 122, (E)-N-(3-hydroxy-1,2,3,4-tetrahydroquinolin-5-yl)-2-(7-trifluoromethyl-chroman-4-ylidene)acetamide]
  A2 VALUE: A (compounds of the present invention having an A2 value of less than 100 nM are represented by A)

## O=C(/C=C1\CCOc2cc(C(F)(F)F)ccc21)Nc1cccc2c1CC(O)CO2 (centres unmarked) [Example 125, (E)-N-(3-hydroxy-chroman-5-yl)-2-(7-trifluoromethyl-chroman-4-ylidene)acetamide]
  A2 VALUE: A (compounds of the present invention having an A2 value of less than 100 nM are represented by A)

## O=C(/C=C1\CCCOc2cc(C(F)(F)F)ccc21)Nc1cccc2cc(O)ccc12 [Example 126, (E)-N-(6-hydroxynaphthalen-1-yl)-2-(8-trifluoromethyl-3,4-dihydrobenzo[b]oxepin-5(2H)-ylidene)acetamide]
  A2 VALUE: A (compounds of the present invention having an A2 value of less than 100 nM are represented by A)

## CS(=O)(=O)O.O=C(/C=C1\CCCOc2cc(C(F)(F)F)ccc21)Nc1ccc2cccnc2c1 [Example 127, (E)-2-(8-trifluoromethyl-3,4-dihydrobenzo[b]oxepin-5(2H)-ylidene)-N-(quinolin-7-yl)acetamide methanesulfonate]
  A2 VALUE: A (compounds of the present invention having an A2 value of less than 100 nM are represented by A)

## O=C(/C=C1\CCCOc2cc(C(F)(F)F)ccc21)Nc1ccc2ccc(O)cc2c1 [Example 128, (E)-2-(8-trifluoromethyl-3,4-dihydrobenzo[b]oxepin-5(2H)-ylidene)-N-(7-hydroxynaphthalen-2-yl)acetamide]
  A2 VALUE: A (compounds of the present invention having an A2 value of less than 100 nM are represented by A)

## COc1ccc2cccc(NC(=O)/C=C3\CCCOc4cc(C(F)(F)F)ccc43)c2c1 [Example 129, (E)-2-(8-trifluoromethyl-3,4-dihydrobenzo[b]oxepin-5(2H)-ylidene)-N-(7-methoxynaphthalen-1-yl)acetamide]
  A2 VALUE: B (compounds having an A2 value of 100 nM or more are represented by B)

## COCCN1CCCc2ccc(NC(=O)/C=C3\CCCOc4cc(C(F)(F)F)ccc43)cc21 [Example 130, (E)-2-(8-trifluoromethyl-3,4-dihydrobenzo[b]oxepin-5(2H)-ylidene)-N-(1-(2-methoxyethyl)-1,2,3,4-tetrahydroquinolin-7-yl)acetamide]
  A2 VALUE: A (compounds of the present invention having an A2 value of less than 100 nM are represented by A)

## O=C(/C=C1\CCCOc2cc(C(F)(F)F)ccc21)Nc1ccc2c(c1)NC(=O)CC2 [Example 133, (E)-2-(8-trifluoromethyl-3,4-dihydrobenzo[b]oxepin-5(2H)-ylidene)-N-(3,4-dihydro-1H-quinolin-2-on-7-yl)acetamide]
  A2 VALUE: A (compounds of the present invention having an A2 value of less than 100 nM are represented by A)

## O=C(/C=C1\CCCOc2cc(C(F)(F)F)ccc21)Nc1ccc2ccc(=O)[nH]c2c1 [Example 134, (E)-2-(8-trifluoromethyl-3,4-dihydrobenzo[b]oxepin-5(2H)-ylidene)-N-(2-quinolon-7-yl)acetamide]
  A2 VALUE: A (compounds of the present invention having an A2 value of less than 100 nM are represented by A)

## COc1cc(NC(=O)/C=C2\CCCOc3cc(C(F)(F)F)ccc32)cc(C(F)(F)F)c1 [Example 135, (E)-2-(8-trifluoromethyl-3,4-dihydrobenzo[b]oxepin-5(2H)-ylidene)-N-(3-methoxy-5-(trifluoromethyl)phenyl)acetamide]
  A2 VALUE: A (compounds of the present invention having an A2 value of less than 100 nM are represented by A)

## O=C(/C=C1\CCCOc2cc(C(F)(F)F)ccc21)Nc1ccc(Cl)c(C(F)(F)F)c1 [Example 136, (E)-2-(8-trifluoromethyl-3,4-dihydrobenzo[b]oxepin-5(2H)-ylidene)-N-(4-chloro-3-(trifluoromethyl)phenyl)acetamide]
  A2 VALUE: A (compounds of the present invention having an A2 value of less than 100 nM are represented by A)

## O=C(/C=C1\CCCOc2cc(C(F)(F)F)ccc21)Nc1ccc2cc[nH]c2c1 [Example 137, (E)-2-(8-trifluoromethyl-3,4-dihydrobenzo[b]oxepin-5(2H)-ylidene)-N-(indol-6-yl)acetamide]
  A2 VALUE: A (compounds of the present invention having an A2 value of less than 100 nM are represented by A)

## O=C(/C=C1\CCCOc2cc(C(F)(F)F)ccc21)Nc1ccc2[nH]ccc2c1 [Example 138, (E)-2-(8-trifluoromethyl-3,4-dihydrobenzo[b]oxepin-5(2H)-ylidene)-N-(indol-5-yl)acetamide]
  A2 VALUE: A (compounds of the present invention having an A2 value of less than 100 nM are represented by A)

## O=C(/C=C1\CCCOc2cc(C(F)(F)F)ccc21)Nc1ccc2c(c1)OCCCO2 [Example 142, (E)-2-(8-trifluoromethyl-3,4-dihydrobenzo[b]oxepin-5(2H)-ylidene)-N-(3,4-dihydro-2H-benzo[b]dioxepin-7-yl)acetamide]
  A2 VALUE: A (compounds of the present invention having an A2 value of less than 100 nM are represented by A)
